Laboratory results taken from patent publication US5478817A, “Digitoxigenin and dihydrodigitoxigenin 3β-derivatives and pharmaceutical compositions comprising same for the treatment of cardiovascular disorders” (priority 1992, dated 1995).
Counter-ions that a name gives are not always drawn. Like-named read-outs stand apart in the source and are kept apart here.

Assays:
[1] = target: T1, Na^+,K^+ -ATPase receptor (Homo sapiens, UniProt P05023); assay: displacement of the specific ^3 H-ouabain binding from the Na^+,K^+ -ATPase receptor
T1 construct: Na^+,K^+ -ATPase receptor purified according to Jorghensen; from tissue
From the text: (§1) To test the affinity for the receptor site of the Na^+,K^+ -ATPase and the agonist or inhibitory activity on the enzyme, the following tests were used: a) displacement of the specific ^3 H-ouabain binding from the Na^+,K^+ -ATPase receptor purified according to Jorghensen (Jorghensen P., BBA, 1974,356, 36) and Erdmann (Erdmann E. et al., Arzneim. Forsh., 1984, 34 (II), 1314); b) inhibition of the activity of the purified Na^+,K^+ -ATPase measured as % of hydrolysis of ^32 P-ATP in presence and in absence of the tested compound (Mall F. et al., Biochem. Pharmacol., 1984, 33, 47).
(§2) The affinity and the inhibitory activity of the aglycone digitoxigenin (DIGI), dihydrodigitoxigenin 20(S) (DIGI 20(S)) and dihydrodigitoxigenin 20(R) (DIGI 20(R)) and some basic 3β-derivatives on the two tests are shown in the following table: […]

[2] = target: T2, purified Na^+,K^+ -ATPase (Homo sapiens, UniProt P05023); assay: inhibition of the activity of the purified Na^+,K^+ -ATPase (hydrolysis of ^32 P-ATP); assay type: biochemical
T2 construct: Na^+,K^+ -ATPase receptor purified according to Jorghensen; from tissue
From the text: as §1, §2

[3] = test system: spontaneous hypertensive rats (MHS); assay: systolic blood pressure and heart rate in hypertensive MHS rats (indirect tail-cuff); assay type: in vivo, rat (MHS); details: 20 mg/Kg/os daily for ten days in Methocel 0.5% w/v, 7 MHS rats; for SBP (systolic blood pressure): controls 171 +/- 4.5; for HR (heart rate): controls 384 +/- 11.0
Protocol: The ability of these compounds to lower blood pressure in adult hypertensive MHS rats was tested by the following method:
systolic blood pressure (SBP) and heart rate (HR) were measured by an indirect tail-cuff method in three-month old hypertensive MHS rats before beginning treatment (basal values). The rats were then subdivided in two groups of 7 animals each, one receiving the compound and the other, the control group, receiving only the vehicle. The compound, suspended in METHOCEL® 0.5% (w/v), for ten days, was administered daily by mouth. SBP and HR were measured daily 6 and 24 hours after the treatment. When ten-day treatment washout had been under way for at least two days, whether the treatment mantains SBP low or re-establish the basal values was verified. […]

[4] = ^3 H-ouabain displacement, purified Na^+,K^+ -ATPase, read-out: Binding ^3 H-Ouab. Displacement log IC50 (converted)
[5] = % hydrolysis of ^32 P-ATP, purified Na^+,K^+ -ATPase, read-out: Inhibitory Activity log IC50 (converted)

In the case of C[C@]12CC[C@H](OCCN3CCCC3)C[C@H]1CC[C@@H]1[C@@H]2CC[C@]2(C)[C@@H](C3=CC(=O)OC3)CC[C@]12O [Comp. I-a, 3β-(2-(1-Pyrrolidinyl)ethoxy)-14β-hydroxy-5β-card-20(22)-enolide], the IC50 [1] is reported as 63.1 nM and the IC50 [2] is reported as 251 nM.

CN(C)CCCO[C@H]1CC[C@@]2(C)[C@H](CC[C@@H]3[C@@H]2CC[C@]2(C)[C@@H](C4=CC(=O)OC4)CC[C@]32O)C1 [Comp. I-b, 3β-(3-Dimethylaminopropoxy)-14β-hydroxy-5β-card-20(22)-enolide] showed an IC50 [1] of 200 nM and an IC50 [2] of 5010 nM.

C[C@]12CC[C@H](OCC[N+](C)(C)C)C[C@H]1CC[C@@H]1[C@@H]2CC[C@]2(C)[C@@H](C3=CC(=O)OC3)CC[C@]12O [Comp. I-c, 3β-(2-(trimethylammonium)ethoxy)-14β-hydroxy-5β-card-20(22)-enolide chloride] was tested, and the “SBP (systolic blood pressure)” value [3] was 152 +/- 5.0 mm Hg, the “HR (heart rate)” value [3] was 375 +/- 9.0 beats/min and the IC50 [1] was 251 nM. For the same molecule, the IC50 [2] was 501 nM.

In the case of C[C@]12CC[C@H](OCCCN)C[C@H]1CC[C@@H]1[C@@H]2CC[C@]2(C)[C@@H](C3=CC(=O)OC3)CC[C@]12O [Comp. I-d, 3β-(3-Aminopropoxy)-14β-hydroxy-5β-card-20(22)-enolide oxalate], the “SBP (systolic blood pressure)” value [3] is reported as 148 +/- 3.2 mm Hg, the “HR (heart rate)” value [3] is reported as 388 +/- 12.0 beats/min and the IC50 [1] is reported as 126 nM. The IC50 [2] was 631 nM.

With CN(C)CCOCCO[C@H]1CC[C@@]2(C)[C@H](CC[C@@H]3[C@@H]2CC[C@]2(C)[C@@H](C4=CC(=O)OC4)CC[C@]32O)C1 [Comp. I-e, 3β-(2-(2-dimethylaminoethoxy)ethoxy)-14β-hydroxy-5β-card-20(22)-enolide] the “SBP (systolic blood pressure)” value [3] was 149 +/- 4.8 mm Hg, the “HR (heart rate)” value [3] was 395 +/- 10.0 beats/min and the IC50 [1] was 100 nM. For the same molecule, the IC50 [2] was 1000 nM.

With C[C@]12CC[C@H](OCCC(=N)N)C[C@H]1CC[C@@H]1[C@@H]2CC[C@]2(C)[C@@H](C3=CC(=O)OC3)CC[C@]12O [Comp. I-f, 3β-(2-Amidinoethoxy)-14β-hydroxy-5β-card-20(22)-enolide oxalate] the “SBP (systolic blood pressure)” value [3] was 153 +/- 5.1 mm Hg, the “HR (heart rate)” value [3] was 378 +/- 8.5 beats/min and the IC50 [1] was 158 nM. The IC50 [2] was 1580 nM.

In the case of C[C@]12CC[C@H](SCC3CO3)C[C@H]1CC[C@@H]1[C@@H]2CC[C@]2(C)[C@@H](C3=CC(=O)OC3)CC[C@]12O (stereo partly drawn) [Comp. I-h, 3β-(2,3-Epoxy)propylthio-14β-hydroxy-5β-card-20(22)-enolide], the “SBP (systolic blood pressure)” value [3] is reported as 157 +/- 6.0 mm Hg, the “HR (heart rate)” value [3] is reported as 382 +/- 6.8 beats/min and the IC50 [1] is reported as 63.1 nM. The IC50 [2] was 631 nM.

Work on C[C@]12CC[C@H](SCCN)C[C@H]1CC[C@@H]1[C@@H]2CC[C@]2(C)[C@@H](C3=CC(=O)OC3)CC[C@]12O [Comp. I-i, 3β-(2-Aminoethylthio)-14β-hydroxy-5β-card-20(22)-enolide oxalate] yielded an IC50 [1] of 100 nM and an IC50 [2] of 631 nM.

In the case of C[C@]12CC[C@H](SCCN)C[C@H]1CC[C@@H]1[C@@H]2CC[C@]2(C)[C@@H]([C@H]3COC(=O)C3)CC[C@]12O [Comp. I-j, 3β-(2-Aminoethylthio)-14β-hydroxy-5β-20(S) cardanolide oxalate], the IC50 [1, 4] is reported as 316 nM and the IC50 [2, 5] is reported as 3160 nM.

In the case of C[C@]12CC[C@H](SCCCN)C[C@H]1CC[C@@H]1[C@@H]2CC[C@]2(C)[C@@H](C3=CC(=O)OC3)CC[C@]12O [Comp. I-k, 3β-(3-Aminopropylthio)-14β-hydroxy-5β-card-20(22)-enolide oxalate], the “SBP (systolic blood pressure)” value [3] is reported as 155 +/- 4.2 mm Hg, the “HR (heart rate)” value [3] is reported as 385 +/- 11.0 beats/min and the IC50 [1] is reported as 79.4 nM. For the same molecule, the IC50 [2] was 501 nM.

In the case of C[C@]12CC[C@H](SCCCN)C[C@H]1CC[C@@H]1[C@@H]2CC[C@]2(C)[C@@H]([C@H]3COC(=O)C3)CC[C@]12O [Comp. I-l, 3β-(3-Aminopropylthio)-14β-hydroxy-5β-20(S)-cardanolide oxalate], the “SBP (systolic blood pressure)” value [3] is reported as 147 +/- 4.8 mm Hg, the “HR (heart rate)” value [3] is reported as 390 +/- 10.0 beats/min and the IC50 [1, 4] is reported as 251 nM. It also gave an IC50 [2, 5] of 2000 nM.

Work on C[C@]12CC[C@H](SCCCN)C[C@H]1CC[C@@H]1[C@@H]2CC[C@]2(C)[C@@H]([C@@H]3COC(=O)C3)CC[C@]12O [Comp. I-m, 3β-Aminopropylthio )-14β-hydroxy-5β-20(R)-cardanolide oxalate] yielded an IC50 [1, 4] of 398 nM and an IC50 [2, 5] of 2510 nM.

Molecule C[C@]12CC[C@H](SCCN3CCCC3)C[C@H]1CC[C@@H]1[C@@H]2CC[C@]2(C)[C@@H](C3=CC(=O)OC3)CC[C@]12O [Comp. I-n, 3β-(2-(1-Pyrrolidinyl)ethylthio)-14β-hydroxy-5β-card-20(22)-enolide sesquioxalate] has an IC50 [1] of 200 nM and an IC50 [2] of 398 nM.

In the case of C[C@]12CC[C@H](SCC[N+](C)(C)C)C[C@H]1CC[C@@H]1[C@@H]2CC[C@]2(C)[C@@H](C3=CC(=O)OC3)CC[C@]12O [Comp. I-p, 3β-(2-(Trimethylammonium)ethylthio)-14β-hydroxy-5β-card-20(22)-enolide chloride], the “SBP (systolic blood pressure)” value [3] is reported as 150 +/- 3.5 mm Hg, the “HR (heart rate)” value [3] is reported as 378 +/- 9.3 beats/min and the IC50 [1] is reported as 100 nM. It also gave an IC50 [2] of 794 nM.

With C[C@]12CC[C@H](SCCCN3CCCC3)C[C@H]1CC[C@@H]1[C@@H]2CC[C@]2(C)[C@@H](C3=CC(=O)OC3)CC[C@]12O [Comp. I-q, 3β-(3-(1-Pyrrolidinyl)propylthio)-14β-hydroxy-5β-card-20(22)-enolide oxalate] the IC50 [1] was 158 nM and the IC50 [2] was 251 nM.

C[C@]12CC[C@H](SCCCN3CCNCC3)C[C@H]1CC[C@@H]1[C@@H]2CC[C@]2(C)[C@@H](C3=CC(=O)OC3)CC[C@]12O [Comp. I-r, 3β-(3-(1-Piperazinyl)propylthio)-14β-hydroxy-5β-card-20(22)-enolide] was tested, and the IC50 [1] was 316 nM and the IC50 [2] was 631 nM.

C[C@]12CC[C@H](SCC(O)CO)C[C@H]1CC[C@@H]1[C@@H]2CC[C@]2(C)[C@@H](C3=CC(=O)OC3)CC[C@]12O (stereo partly drawn) [Comp. I-s, 3β-(2,3-Dihydroxypropylthio)-14β-hydroxy-5β-card-20(22)-enolide] was tested, and the “SBP (systolic blood pressure)” value [3] was 149 +/- 4.1 mm Hg, the “HR (heart rate)” value [3] was 394 +/- 6.3 beats/min and the IC50 [1] was 79.4 nM. For the same molecule, the IC50 [2] was 631 nM.

With C[C@]12CC[C@H](SCC(O)CN)C[C@H]1CC[C@@H]1[C@@H]2CC[C@]2(C)[C@@H](C3=CC(=O)OC3)CC[C@]12O (stereo partly drawn) [Comp. I-u, 3β-(3-Amino-2-hydroxypropylthio)-14β-hydroxy-5β-card-20(22)-enolide] the “SBP (systolic blood pressure)” value [3] was 152 +/- 5.2 mm Hg, the “HR (heart rate)” value [3] was 377 +/- 9.0 beats/min and the IC50 [1] was 50.1 nM. It also gave an IC50 [2] of 251 nM.

C[C@]12CC[C@H](O)C[C@H]1CC[C@@H]1[C@@H]2CC[C@]2(C)[C@@H]([C@@H]3COC(=O)C3)CC[C@]12O [DIGI 20(R), dihydrodigitoxigenin 20(R), reference compound] was tested, and the IC50 [1] was 2510 nM and the IC50 [2] was 7940 nM.

C[C@]12CC[C@H](O)C[C@H]1CC[C@@H]1[C@@H]2CC[C@]2(C)[C@@H]([C@H]3COC(=O)C3)CC[C@]12O [DIGI 20(S), dihydrodigitoxigenin 20(S), reference compound] showed an IC50 [1] of 1580 nM and an IC50 [2] of 2510 nM.

With C[C@]12CC[C@H](O)C[C@H]1CC[C@@H]1[C@@H]2CC[C@]2(C)[C@@H](C3=CC(=O)OC3)CC[C@]12O [DIGI, digitoxigenin] the “SBP (systolic blood pressure)” value [3] was 173 +/- 4.0 mm Hg, the “HR (heart rate)” value [3] was 380 +/- 10.0 beats/min and the IC50 [1] was 316 nM. It also gave an IC50 [2] of 316 nM.
